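Where inhibition never reached the appropriate level, the endpoint shown equals the highest concentration tested. Otherwise, values were interpolated linearly from a five-concentration, 48-hour dose response in 96-well plates. At the GI50, growth is halved. The concentration for full growth arrest is given as TGI.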
Experiments:
Assay in all cases: NCI anticancer screen, dose series, 48 h
SF-268 CNS = test system: SF-268 CNS
LOX IMVI melanoma = test system: LOX IMVI melanoma
HOP-92 NSCLC = test system: HOP-92 NSCLC
SN12C renal = test system: SN12C renal
KM12 colon = test system: KM12 colon
SK-MEL-5 melanoma = test system: SK-MEL-5 melanoma
ACHN renal = test system: ACHN renal
SF-295 CNS = test system: SF-295 CNS
NCI-H23 lung = test system: NCI-H23 lung
MCF7 breast = test system: MCF7 breast

Row | Structure (SMILES) | TGI (SF-268 CNS) [µM] | TGI (LOX IMVI melanoma) [µM] | TGI (HOP-92 NSCLC) [µM] | TGI (SN12C renal) [µM] | TGI (KM12 colon) [µM] | TGI (SK-MEL-5 melanoma) [µM] | TGI (ACHN renal) [µM] | TGI (SF-295 CNS) [µM] | TGI (NCI-H23 lung) [µM] | GI50 (SF-268 CNS) [nM] | GI50 (LOX IMVI melanoma) [nM] | GI50 (HOP-92 NSCLC) [nM] | GI50 (SN12C renal) [nM] | GI50 (MCF7 breast) [nM] | TGI (MCF7 breast) [µM] | GI50 (KM12 colon) [nM] | GI50 (SK-MEL-5 melanoma) [nM] | GI50 (ACHN renal) [nM] | GI50 (SF-295 CNS) [nM] | GI50 (NCI-H23 lung) [nM]
1 | NC(=S)N/N=C/c1nccc2ccccc12 | 4.04 | 2.64 | > 100 | > 100 | > 100 | > 100 | 1.01 | 2.03 | 6.42 | – | – | – | – | – | – | – | – | – | – | –
2 | c1ccc(N2N=C(c3cccc(Nc4ccncc4)c3)CC2c2ccc3c(c2)OCO3)cc1 (configuration not stated) | 3.75 | 3.08 | 2.47 | 3.25 | 3.18 | 3.17 | 3.21 | 3.51 | 4.04 | 1790 | 1690 | 1100 | 1710 | 1740 | 4.25 | 1510 | 1770 | 1640 | 1870 | 1940
3 | CC[C@@H]1ON(C)[C@H]2CN(C)C(=O)[C@@H]12 | – | > 100 | > 100 | > 100 | – | > 100 | > 100 | > 100 | > 100 | – | – | – | – | – | > 100 | – | – | – | – | –
4 | COc1nc2ccc(COc3ccc(C(=O)NC(CCC(=O)O)C(=O)O)cc3)cc2nc1OC (configuration not stated) | > 10 | > 10 | > 10 | > 10 | > 10 | > 10 | > 10 | > 10 | > 10 | – | – | – | – | – | > 10 | – | – | – | – | –
5 | Cc1nc2c(c(=O)[nH]1)S/C(=C(/C#N)c1nc3ccccc3[nH]1)N2c1ccccc1 | > 100 | – | > 100 | > 100 | > 100 | > 100 | > 100 | > 100 | > 100 | – | – | – | – | – | – | – | – | – | – | –
6 | CC(=O)N1N=C(c2ccc3ccccc3c2O)CC1c1cccs1 (configuration not stated) | > 100 | – | > 100 | > 100 | 46.4 | > 100 | > 100 | > 100 | > 100 | – | – | – | – | – | > 100 | – | – | – | – | –
7 | COc1ccc2c(c1O)-c1cc(O)cc3c1[C@@H](C2)N(C)CC3 | 229 | 142 | 73.6 | 183 | 114 | 122 | – | 145 | 257 | – | – | – | – | – | 129 | – | – | – | – | –
8 | O=C1C(Cl)N(c2cccc(Cl)c2)C1c1c[nH]c2ccccc12 (configuration not stated) | > 100 | – | > 100 | > 100 | > 100 | > 100 | – | > 100 | > 100 | – | – | – | – | – | – | – | – | – | – | –
9 | COc1ccc(-c2csc(=Nc3ccccc3)n2CCCN(C)C)cc1 | 56.4 | – | > 100 | > 100 | 29.5 | – | 48.6 | 27.6 | 48.5 | – | – | – | – | – | – | – | – | – | – | –
10 | COc1cc(C2S/C(=C/c3ccccc3)C(=O)N2c2ccc(NC(C)=O)cc2)cc(OC)c1OC (configuration not stated) | 83.3 | 63.7 | 83.6 | 60.3 | 31 | 34.9 | 77.8 | > 100 | 66.8 | – | – | – | – | – | > 100 | – | – | – | – | –
